In US20160271178A1, “NANOPARTICLE-CONTAINING HYDROGELS” (priority 2013, published 2016):

Tested on: P. aeruginosa
Experiment: Bacterial suspension assay (OD measurement)
Assay type: cell-based
Details: tetracycline 10 and 20 μg/mL; 24 h
Procedure: Gels were prepared in 24-well sterile Nunc plates. 10 mM AgNO3 solution in 100 mM Tris-buffer (pH=8.5) was freshly prepared and used to dissolve the peptide to a final concentration of 10 mg/mL. The resultant solution was sonicated for 15-20 s to ensure complete dissolution of the peptide. 400 μL of the peptide solution was then aliquoted into each well and allowed to spread evenly on the surface. […] Prior to use, the plates were exposed to short-wavelength UV at 254 nm for 5 minutes to allow Ag NP formation. For the control gels, 100 mM Tris buffer without AgNO3 was used for Ac-LK6—NH2 hydrogel preparation.
50 μL of bacterial stock was inoculated overnight in 5 mL of Luria-Bertani (LB) medium (pH=7.5), with constant shaking at 300 rpm at 37° C. The log-phase bacterial solution was then diluted in LB medium to obtain an O.D. of 0.07 (at 600 nm). This was used as the starting bacterial solution (0 hr reading) and 400 μL of the solution was dispensed into each well of the 24-well plate containing the hydrogels. […] Ac-LK6—NH2 hydrogels without Ag NPs and bacteria-only solutions served as the negative controls. […] For the O.D. readings, 100 μL of the bacterial solution was transferred into a transparent 96 well Nunc plate just before measurement, to prevent the hydrogel layer from influencing absorbance measurements. […]

Structure (SMILES): CN(C)[C@@H]1C(O)=C(C(N)=O)C(=O)[C@@]2(O)C(O)=C3C(=O)c4c(O)cccc4[C@@](C)(O)[C@H]3C[C@@H]12 [tetracycline, Tetracycline]
- growth inhibition compared to the untreated control: about 50%
